The target in one data set is CYP2C19 (Homo sapiens, UniProt P33261). Briefly: Cytochrome p450 inhibition assessment, CYP2C19. The data set is classed as in vitro ADME. The conditions noted are these: estimated. As to the method:
The ability of test compounds to inhibit five major human cytochrome p450 isozymes was evaluated. Cytochrome p450 inhibition assays were performed on 96-well microtiter assay plates according to the protocols described in Gentest P450 inhibition instruction manuals. The assays were performed in duplicate at 8 concentrations with the upper concentration of 100 μM followed by a 1:3 serial dilution. Reactions were initiated by the addition of 100 μL of enzyme/substrate mix to 100 μL of cofactor/serial dilution mix, and terminated by addition of 75 μL of a 4:1 acentonitrile: 0.5 M Tris base solution or by 2N NaOH for CYP3A4/DBF. Fluorescence was measured using a fluorescence plate reader (FLUOstar model 403, BMG Lab Technologies, Durham, N.C.). For reactions with inhibition greater than 50%, IC50 values were determined by fitting the data to the Hill equation using software GraphPad Prism (Version 4.02, GraphPad Software, San Diego, Calif.).

Data set [1] deals with pawlick response induced by capsaicin. Nature of the data set: Paw lick assay (capsaicin challenge). It counts as in vivo. The conditions noted are these: 30 mg/kg, at least 30 minutes prior to testing; FIG. 5. As to the method:
This assay was performed to test the ability of Compound 18 to inhibit the response to capsaicin challenge.
Animals were acclimatized at least 2 days prior to testing by placing them in a behavioral chamber for one hour. On the day of testing, animals were trained for 30-60 minutes prior to dosing. Animals were dosed with 30 mg/kg of Compound 18 at least 30 minutes prior to testing and then placed in behavioral chambers for acclimatization. Animals were then placed into a falcon tube restrainer and injected with a 0.16 mg/ml capsaicin solution (or vehicle) into the plantar surface of their paw. Animals were then returned to the behavior chamber and monitored for paw licking behavior (including paw and leg licking behavior) over the next 5 minute interval.

A short description of data set [2]: Pharmacokinetic profile after intravenous and oral administration. The data set is classed as in vivo. The conditions noted are these: male, Sprague-Dawley, rat, plasma, rats, IV 1 mg/kg and oral 5 mg/kg. The method, then:
The pharmacokinetic profile of Compound 18 was evaluated following intravenous and oral administration in rats. Sprague-Dawley male rats obtained from Charles River, San Diego, Calif. were acclimated for 24 hours. Compound 18 was formulated at a concentration of 0.5 mg/mL for IV administration at a 1 mg/kg dose and 1 mg/mL for oral administration at a 5 mg/kg dose. All animals were weighed before dosing. The body weight was used to calculate the actual dose for each animal. The intravenous dose was administered through the jugular vein catheter in less than 1 minute. The oral dose volume was 1.5 ml for all PO rats administered through oral […]. […] For PO dosing, blood samples were collected using a pre-heparinized syringe via the carotid artery catheter before dosing and at t=5, 15, 30, 60, 120, 180, 360, and 480 minutes post dosing. 250 uL of blood was obtained at each time point from each animal. Equal volumes of 0.9% normal saline were replaced to prevent dehydration. The whole blood samples were maintained on ice until centrifugation. Blood samples were centrifuged at 14,000 rpm for 10 minutes at 4° C., and the upper plasma layer was transferred into a clean vial and store at −80° C. The plasma was analyzed.

The next data set deals with T1, VR1 receptor (Rattus norvegicus, UniProt O35433).
T1 construct: Dorsal root ganglion (DRG) neurons were recovered from either neonatal or adult rats; endogenous in cells; host or cells: primary rat dorsal root ganglion neurons
T1 sequence (O35433 whole entry): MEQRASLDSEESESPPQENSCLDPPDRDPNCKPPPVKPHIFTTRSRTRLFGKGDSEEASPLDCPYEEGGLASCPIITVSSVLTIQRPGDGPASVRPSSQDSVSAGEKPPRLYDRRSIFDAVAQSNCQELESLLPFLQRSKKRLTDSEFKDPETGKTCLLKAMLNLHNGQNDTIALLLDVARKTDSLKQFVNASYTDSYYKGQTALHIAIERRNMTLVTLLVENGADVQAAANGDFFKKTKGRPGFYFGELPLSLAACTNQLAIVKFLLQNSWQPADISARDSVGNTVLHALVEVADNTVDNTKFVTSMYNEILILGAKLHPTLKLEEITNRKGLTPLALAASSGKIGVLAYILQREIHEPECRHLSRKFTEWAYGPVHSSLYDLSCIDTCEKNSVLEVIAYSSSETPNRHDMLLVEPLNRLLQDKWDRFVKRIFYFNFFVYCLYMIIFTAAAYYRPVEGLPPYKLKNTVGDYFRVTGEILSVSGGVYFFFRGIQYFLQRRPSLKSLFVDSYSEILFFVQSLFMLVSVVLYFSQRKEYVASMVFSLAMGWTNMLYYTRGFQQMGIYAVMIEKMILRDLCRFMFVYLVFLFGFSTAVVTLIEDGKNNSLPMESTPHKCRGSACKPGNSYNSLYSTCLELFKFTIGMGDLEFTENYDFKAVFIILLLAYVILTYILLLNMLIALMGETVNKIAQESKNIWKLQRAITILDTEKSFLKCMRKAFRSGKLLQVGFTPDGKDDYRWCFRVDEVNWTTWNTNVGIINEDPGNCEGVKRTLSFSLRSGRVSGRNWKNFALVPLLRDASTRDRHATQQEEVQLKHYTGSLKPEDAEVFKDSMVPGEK
Briefly: Whole-cell patch clamp electrophysiology, capsaicin induced current in DRG neurons. It counts as cell-based. The method, then: Dorsal root ganglion (DRG) neurons were recovered from either neonatal or adult rats and plated onto poly-D-lysine coated glass coverslips. The plated neurons were transferred into a chamber to allow drug solutions to be added to the cells using a computer-controlled solenoid-valve based perfusion system. The cells were imaged using standard DIC optics. Cells were patched using finely-pulled glass electrodes. Voltage-clamp electrophysiology experiments were carried out using an Axon Instruments Multiclamp amplified controlled by pCLAMP8 software.
The cells were placed into a whole-cell voltage clamp and help at a voltage of −80 mV while monitoring the membrane current in gap-free recording mode. 500 nM capsaicin was added for 30 seconds as a control. Test compounds at various concentrations at ranging from (10-1000 nM) were added to the cells for 1 minute prior to a 30 second capsaicin application. Differences between control experiments and drug positive capsaicin experiments were used to determine the efficacy of each test compound. All compounds that inhibited capsaicin induced current greater than 50% were considered positives.
A general note: Patch clamp records ionic current or voltage across a cell membrane.

In data set [3] the test system is capsaicin induced plasma extravasation. Nature of the data set: Plasma extravasation study (capsaicin applied to ear, Evans Blue). The data set is classed as in vivo, rat. The conditions noted are these: rats, dose of 30 mg/kg, dosed two hours before Evans Blue; FIG. 2. As to the method: The density of TRPV1 expression is enhanced during an inflammatory condition. Therefore TRPV1 antagonists have been investigated in three different models of inflammatory pain, namely plasma extravasation, paw lick assay, and thermal hyperalgesia.
Sprague-Dawley male rats obtained from Charles River, San Diego, Calif. were dosed with compound 18. Two hours later, they were injected with Evan's Blue (10 ml/kg or 150 μl). Thirty minutes after I.V. injection, 10 μl of 25 mM capsaicin in 100% ethanol was applied to the left ear of the animal, followed by 10 μl vehicle (100% EtOH) to the right ear of the […]. Fifteen minutes later, the animal was sacrificed using CO2. Each ear was removed, placed into labeled tubes and weighed. The dye was then extracted from the ears by drying the ears at 55-60° overnight. The following day, 250 μl formamide was added and left at 55-60° overnight.
An Evans blue standard curve was first generated ([…]). Samples (with ears) were spun for at least 1 minute before addition of 100 μl of each sample to appropriate wells. Samples were analyzed in a plate holder by SOFTmax PRO. Standards were graphed to generate a standard curve and then used to extrapolate Evans Blue concentrations of experimental samples.

Results on one molecule are retold here after patent US20050197364A1, “Amide compounds as ion channel ligands and uses thereof” (priority 2003, published 2005).

CYP2C19, sequence (P33261 whole entry): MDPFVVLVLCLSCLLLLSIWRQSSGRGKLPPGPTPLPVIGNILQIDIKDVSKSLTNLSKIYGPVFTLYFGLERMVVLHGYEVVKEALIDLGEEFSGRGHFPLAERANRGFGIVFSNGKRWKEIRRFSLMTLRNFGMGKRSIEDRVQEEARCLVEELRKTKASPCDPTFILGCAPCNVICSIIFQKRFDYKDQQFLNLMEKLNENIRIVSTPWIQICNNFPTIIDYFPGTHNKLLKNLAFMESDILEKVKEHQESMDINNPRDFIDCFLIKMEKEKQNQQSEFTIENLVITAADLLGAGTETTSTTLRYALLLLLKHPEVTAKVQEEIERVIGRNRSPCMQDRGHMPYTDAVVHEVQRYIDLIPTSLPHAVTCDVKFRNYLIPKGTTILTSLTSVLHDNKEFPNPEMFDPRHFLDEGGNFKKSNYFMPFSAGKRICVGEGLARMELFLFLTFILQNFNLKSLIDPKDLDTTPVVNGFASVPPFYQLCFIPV

The term IC50 denotes the concentration needed to halve the response being measured. What is called Cmax is the peak of the concentration-time curve. Usually Tmax stands for the time from dosing to the highest level. In general, bioavailability refers to dose-corrected exposure relative to a reference, in per cent. A word on the inhibition: it is the relative decrease from the control value, in per cent. `O=C(Nc1ccc(C(F)(F)F)cc1)c1ccc(-c2ncccc2Cl)cc1` [Compound 18, 4-(3-Chloropyridin-2-yl)-N-(4-trifluoromethyl-phenyl)benzamide]: the IC50 on CYP2C19 was 26.9 µM. For the same molecule, the “pawlick response induced by treatment with capsaicin” value in data set [1] was “significantly inhibited”. For the same molecule, in data set [2], the concentration peaked (Cmax) at 1750 nM and the Tmax is 3 h. Also, the clearance in data set [2] (read-out: Clearance (Cl) (converted)) was 8.83 mL/min/kg. The bioavailability in data set [2] (read-out: Oral Bioavailability (%F)) was 30.1%. Further, the Vd in data set [2] (read-out: Volume of distribution (Vd)) was found to be 2.82 L/kg. The half-life in data set [2] (read-out: half life (t1/2) (converted)) is 3.71 h. The “dose response of inhibiting a capsaicin induced calcium ion influx (FIG. 3)” value at VR1 receptor (50 nM, 100 nM and 250 nM) is “increasing effectiveness”. Further, the inhibition at 0.1 µM against VR1 receptor (DRG neuron, 100 nM compound, treatment time 20 seconds, 500 nM capsaicin, rat DRG neurons, -80 mV) is less than 75%. Further, the “capsaicin induced plasma extravasation” value in data set [3] is recorded as “significantly blocks”.
